# ChEMBL document CHEMBL1130432, “Neuritogenic effect of epolactaene derivatives on human neuroblastoma cells which lack high-affinity nerve growth factor receptors” (1997)
# How the values were obtained:
# Format in all cases: functional, Homo sapiens
# [1] = tested on: SH-SY5Y; experiment: Ability to induce neurite outgrowth in SH-SY5Y cells measured as percentage of neurite bearing cells/total cells at 25.4 uM; Range is 5-20%
# [2] = tested on: SH-SY5Y; experiment: Ability to induce neurite outgrowth in SH-SY5Y cells measured as percentage of neurite bearing cells/total cells at 98.8 uM; Range is 5-20%
# [3] = tested on: SH-SY5Y; experiment: Ability to induce neurite outgrowth in SH-SY5Y cells measured as percentage of neurite bearing cells/total cells at 59.4 uM
# [4] = tested on: SH-SY5Y; experiment: Ability to induce neurite outgrowth in SH-SY5Y cells measured as percentage of neurite bearing cells/total cells at 29.5 uM; Range is 5-20%
# [5] = tested on: SH-SY5Y; experiment: Ability to induce neurite outgrowth in SH-SY5Y cells measured as percentage of neurite bearing cells/total cells at 17.8 uM; Range is 20-40%
# [6] = tested on: SH-SY5Y; experiment: Ability to induce neurite outgrowth in SH-SY5Y cells measured as percentage of neurite bearing cells/total cells at 118.8 uM; Range is 5-20%
structure (smiles),measurement,setting,value
CCCCCCCCCCCCCCCCN1C(=O)C(C(C)=O)=C(C)C1(C)O (stereo unspecified),Neurite bearing cells/total cells,[1],20%
CCCCCCOC1(C)NC(=O)C(C(C)=O)=C1C (stereo unspecified),Neurite bearing cells/total cells,[2],20%
CCCCCCCCCCCCCCCCCCOC1(C)NC(=O)C(C(C)=O)=C1C (stereo unspecified),Neurite bearing cells/total cells,[3],>40%
CCCCCCCCCCCCN1C(=O)C(C(C)=O)=C(C)C1(C)O (stereo unspecified),Neurite bearing cells/total cells,[4],20%
CCCCCCCCN1C(=O)C(C(C)=O)=C(C)C1(C)O (stereo unspecified),Neurite bearing cells/total cells,[5],40%
CCCCCCCCCCCCCCCCCCN1C(=O)C(C(C)=O)=C(C)C1(C)O (stereo unspecified),Neurite bearing cells/total cells,[6],20%
